Like-named read-outs stand apart in the source and are kept apart here.
Legend:
desmolase [1] = details: literature; cited from earlier work
[2] = CNS (sedative-hypnotic) activity; details: in vivo
desmolase [3] = biological target: T1, desmolase (Bos taurus, UniProt P00189); test: Desmolase inhibition, (26-^14C)-cholesterol as substrate (7 micromolar), mitochondrial fraction of bovine adrenal cortex; assay type: biochemical
T1 construct: The mitochondrial fraction of bovine adrenal cortex provided the source of desmolase; from tissue; host or cells: bovine adrenal cortex, mitochondrial fraction
T1 sequence (P00189 40-520): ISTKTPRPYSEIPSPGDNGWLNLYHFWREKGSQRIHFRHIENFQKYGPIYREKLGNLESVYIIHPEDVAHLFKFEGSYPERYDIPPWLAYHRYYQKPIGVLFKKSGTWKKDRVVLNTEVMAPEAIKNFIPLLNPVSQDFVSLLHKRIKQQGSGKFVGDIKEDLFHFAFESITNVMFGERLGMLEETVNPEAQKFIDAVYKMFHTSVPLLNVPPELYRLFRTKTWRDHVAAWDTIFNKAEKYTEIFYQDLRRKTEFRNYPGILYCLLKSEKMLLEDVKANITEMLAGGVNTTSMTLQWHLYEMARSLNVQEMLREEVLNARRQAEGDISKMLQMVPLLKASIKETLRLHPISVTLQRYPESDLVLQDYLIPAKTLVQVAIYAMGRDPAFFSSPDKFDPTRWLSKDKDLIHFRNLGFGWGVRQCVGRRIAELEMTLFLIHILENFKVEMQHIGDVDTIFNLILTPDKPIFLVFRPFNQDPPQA

aromatase [4] = biological target: T2, aromatase (Homo sapiens, UniProt P11511); test: Aromatase inhibition, (1,2-^3H) testosterone as substrate (1.5 micromolar), microsomal fraction of human placental tissue; assay type: biochemical; details: for IC50: 1.5 micromolar (^3H) testosterone; for IC50 / IC50 Aromatase Testosterone: 30° C., "None" = no inhibition; for IC50 Aromatase Testosterone: […] (^3H) testosterone; for aromatase inhibition (in words): substrate not stated
T2 construct: Aromatase was obtained from the microsomal fraction of human placental tissue; from tissue; host or cells: human placenta, microsomal fraction
T2 sequence (P11511 1-503): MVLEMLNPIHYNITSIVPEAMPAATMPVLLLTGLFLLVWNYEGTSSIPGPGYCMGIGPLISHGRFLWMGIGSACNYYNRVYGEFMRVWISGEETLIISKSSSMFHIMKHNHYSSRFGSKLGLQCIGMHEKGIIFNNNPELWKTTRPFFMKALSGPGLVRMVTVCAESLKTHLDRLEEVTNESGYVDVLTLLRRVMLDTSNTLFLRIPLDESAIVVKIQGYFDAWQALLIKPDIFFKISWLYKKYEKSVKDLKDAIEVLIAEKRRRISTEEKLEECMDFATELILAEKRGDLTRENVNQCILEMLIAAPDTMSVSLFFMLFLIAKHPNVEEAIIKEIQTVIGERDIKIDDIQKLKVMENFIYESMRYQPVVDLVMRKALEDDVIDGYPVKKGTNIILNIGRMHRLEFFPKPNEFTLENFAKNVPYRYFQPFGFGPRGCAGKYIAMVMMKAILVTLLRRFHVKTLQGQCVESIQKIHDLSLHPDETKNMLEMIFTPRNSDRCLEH

aromatase [5] = biological target: T2, aromatase; test: Aromatase inhibition, (1,2-^3H) androstene-3,17-dione as substrate (0.38 micromolar), microsomal fraction of human placental tissue; assay type: biochemical; details: 0.38 micromolar (^3H) androstene-3,17-dione, 30° C., "None" = no inhibition; for IC50: read-out: IC50 Aromatase Androstenedione
[6] = 7 micromolar (^14C) cholesterol, 30° C., "None" = no inhibition
[7] = 7 micromolar (^14C) cholesterol, 30° C., "None" = no inhibition, read-out: IC50 Desmolase

Compound	IC50 Desmolase (desmolase [3]; [6])	IC50 (aromatase [4])	further results
CCC1(c2ccc(N)cc2)CCC(=O)NC1=O (centres unmarked) [Aminoglutethimide]			inhibition of desmolase (desmolase [1]): also inhibits the enzyme desmolase
CCC1(c2ccncc2)CCC(=O)NC1=O (centres unmarked) [Pyridoglutethimide, 3-ethyl-3-(4-pyridyl)piperidine-2,6-dione]	none		CNS (sedative-hypnotic) activity [2]: little or no CNS (sedative-hypnotic) activity; inhibition of desmolase (desmolase [1]): not desmolase
O=C1CCC(CCC(F)(F)C(F)(F)C(F)(F)F)(c2ccncc2)C(=O)N1 (centres unmarked) [R1=(CH2)2 (CF2)2 CF3, R2=H]	none	18 µM	IC50 (aromatase [5]): 22 µM
O=C1CCC(CCC(F)(F)C(F)(F)C(F)(F)C(F)(F)F)(c2ccncc2)C(=O)N1 (centres unmarked) [R1=(CH2)2 (CF2)3 CF3, R2=H, reference compound]	none	18 µM	IC50 (aromatase [5]): 22 µM
O=C1CCC(CCC(F)(F)C(F)(F)C(F)(F)C(F)(F)C(F)(F)C(F)(F)F)(c2ccncc2)C(=O)N1 (centres unmarked) [R1=(CH2)2 (CF2)5 CF3, R2=H, reference compound]			IC50 Aromatase Testosterone (aromatase [4]): none; IC50 (desmolase [3]): 93 µM; IC50 Aromatase Androstenedione (aromatase [5]): none
O=C1CCC(CCC(F)(F)C(F)(F)C(F)(F)C(F)(F)C(F)(F)C(F)(F)C(F)(F)C(F)(F)F)(c2ccncc2)C(=O)N1 (centres unmarked) [R1=(CH2)2 (CF2)7 CF3, R2=H, reference compound]			IC50 (desmolase [3]): 79 µM; IC50 Aromatase Androstenedione (aromatase [5]): none
O=C1CCC(CCC(F)(F)F)(c2ccncc2)C(=O)N1 (centres unmarked) [R1=(CH2)2 CF3, R2=H]	none	2.9 µM	IC50 (aromatase [5]): 7 µM
CCC1(c2ccncc2)CCC(=O)N(CCC(F)(F)C(F)(F)C(F)(F)F)C1=O (centres unmarked) [R1=C2 H5, R2=(CH2)2 (CF2)2 CF3]		3 µM	IC50 (desmolase [3]): 240 µM; IC50 (aromatase [5]): 15 µM
CCC1(c2ccncc2)CCC(=O)N(CCC(F)(F)C(F)(F)C(F)(F)C(F)(F)F)C1=O (centres unmarked) [R1=C2 H5, R2=(CH2)2 (CF2)3 CF3]		9 µM	IC50 (desmolase [3]): 120 µM; IC50 (aromatase [5]): 9 µM
CCC1(c2ccncc2)CCC(=O)N(CCC(F)(F)C(F)(F)C(F)(F)C(F)(F)C(F)(F)C(F)(F)F)C1=O (centres unmarked) [R1=C2 H5, R2=(CH2)2 (CF2)5 CF3]		34 µM	IC50 (desmolase [3]): 145 µM; IC50 (aromatase [5]): 23 µM
CCC1(c2ccncc2)CCC(=O)N(CCC(F)(F)C(F)(F)C(F)(F)C(F)(F)C(F)(F)C(F)(F)C(F)(F)C(F)(F)F)C1=O (centres unmarked) [R1=C2 H5, R2=(CH2)2 (CF2)7 CF3]		15 µM	IC50 (desmolase [3]): 150 µM; IC50 Aromatase Androstenedione (aromatase [5]): none
CCC1(c2ccncc2)CCC(=O)N(CC(F)(F)C(F)(F)C(F)(F)F)C1=O (centres unmarked) [R1=C2 H5, R2=CH2 (CF2)2 CF3]	none	19 µM	IC50 (aromatase [5]): 106 µM
CCC1(c2ccncc2)CCC(=O)N(CC(F)(F)F)C1=O (centres unmarked) [R1=C2 H5, R2=CH2 CF3]		14 µM	IC50 (desmolase [3]; [7]): > 350 µM; IC50 (aromatase [5]): 31 µM
CCC1(c2ccncc2)CCC(=O)N(CCC(F)(F)F)C1=O (centres unmarked) [R1=C2 H5, R2=CH2 CH2 CF3]	none	11 µM	IC50 (aromatase [5]): 42 µM
CCC1(c2ccncc2)CCC(=O)N(C)C1=O (centres unmarked) [R1=C2 H5, R2=CH3]	none		
CCC1(c2ccncc2)CCC(=O)N(CC2CCCCC2)C1=O (centres unmarked) [R1=C2 H5, R2=[drawing 7]]	none	9 µM	
CCN1C(=O)CCC(CC)(c2ccncc2)C1=O (centres unmarked) [R1=C2 H5, R2=n-C2 H5, reference compound]			IC50 (desmolase [3]; [7]): 92 µM
CCCN1C(=O)CCC(CC)(c2ccncc2)C1=O (centres unmarked) [R1=C2 H5, R2=n-C3 H7]	none		
CCCCN1C(=O)CCC(CC)(c2ccncc2)C1=O (centres unmarked) [R1=C2 H5, R2=n-C4 H9]	none		
CCCCCN1C(=O)CCC(CC)(c2ccncc2)C1=O (centres unmarked) [R1=C2 H5, R2=n-C5 H11]			IC50 (desmolase [3]; [7]): 209 µM

Compound	IC50 Desmolase (desmolase [3]; [6])	IC50 (aromatase [4])	further results
CCCCCCN1C(=O)CCC(CC)(c2ccncc2)C1=O (centres unmarked) [R1=C2 H5, R2=n-C6 H13]	none		
CCCCCCCN1C(=O)CCC(CC)(c2ccncc2)C1=O (centres unmarked) [R1=C2 H5, R2=n-C7 H15]			IC50 (desmolase [3]; [7]): 210 µM
CCCCCCCCN1C(=O)CCC(CC)(c2ccncc2)C1=O (centres unmarked) [R1=C2 H5, R2=n-C8 H17]			IC50 (desmolase [3]; [7]): 110 µM
CCCCCCCCCN1C(=O)CCC(CC)(c2ccncc2)C1=O (centres unmarked) [R1=C2 H5, R2=n-C9 H19]			aromatase inhibition (in words) (aromatase [4]): dramatic increase; IC50 (desmolase [3]; [7]): 175 µM
CCCCCCCCCCN1C(=O)CCC(CC)(c2ccncc2)C1=O (centres unmarked) [R1=C2 H5, R2=n-C10 H21]			IC50 (desmolase [3]; [7]): 340 µM
CN1C(=O)CCC(C)(c2ccncc2)C1=O (centres unmarked) [R1=CH3, R2=CH3, reference compound]	none	> 90 µM	
CC1(c2ccncc2)CCC(=O)NC1=O (centres unmarked) [R1=CH3, R2=H, reference compound]	none		
CCCC1(c2ccncc2)CCC(=O)NC1=O (centres unmarked) [R1=n-C3 H7, R2=H]	none		
CCCCC1(c2ccncc2)CCC(=O)NC1=O (centres unmarked) [R1=n-C4 H9, R2=H]	none		
CCCCN1C(=O)CCC(CCCC)(c2ccncc2)C1=O (centres unmarked) [R1=n-C4 H9, R2=n-C4 H9]	none	2.1 µM	
CCCCCC1(c2ccncc2)CCC(=O)NC1=O (centres unmarked) [R1=n-C5 H11, R2=H]	none	3.2 µM	
CCCCCCC1(c2ccncc2)CCC(=O)NC1=O (centres unmarked) [R1=n-C6 H13, R2=H]	none	3.8 µM	
CCCCCCC1(c2ccncc2)CCC(=O)N(CC)C1=O (centres unmarked) [R1=n-C6 H13, R2=n-C2 H5]	none	2.1 µM	
CCCCCCCC1(c2ccncc2)CCC(=O)NC1=O (centres unmarked) [R1=n-C7 H15, R2=H]	none	2 µM	
CCCCCCCCC1(c2ccncc2)CCC(=O)NC1=O (centres unmarked) [R1=n-C8 H17, R2=H]	none		
CCCCCCCCC1(c2ccncc2)CCC(=O)N(CCCC)C1=O (centres unmarked) [R1=n-C8 H17, R2=n-C4 H9, reference compound]			IC50 Aromatase Testosterone (aromatase [4]): none; aromatase inhibition (in words) (aromatase [4]): no aromatase inhibition; IC50 (desmolase [3]; [7]): 106 µM
CCCCCCCCC1(c2ccncc2)CCC(=O)N(CCCCCC)C1=O (centres unmarked) [R1=n-C8 H17, R2=n-C6 H13, reference compound]		10 µM	desmolase inhibition (in words) (desmolase [3]): significant desmolase inhibition; IC50 (desmolase [3]; [7]): 73 µM
CCCCCCCCN1C(=O)CCC(CCCCCCCC)(c2ccncc2)C1=O (centres unmarked) [R1=n-C8 H17, R2=n-C8 H17, reference compound]			IC50 Aromatase Testosterone (aromatase [4]): none; IC50 (desmolase [3]; [7]): 169 µM
CCCCCCCCCC1(c2ccncc2)CCC(=O)NC1=O (centres unmarked) [R1=n-C9 H19, R2=H]	none		

Source: patent US4668689A, “Glutarimide derivatives for treating oestrogen-dependent tumors” (National Research Development Corporation, priority 1984, dated 1987)
